# Assay results from patent US4963566A, “Benzimidazolyl-sulfinyl-tetrahydroquinolines” (Otsuka Pharmaceutical Co., Ltd., priority 1986, dated 1990).
# Molecular target: T1, H^+ +K^+ ATPase (Sus scrofa, UniProt P19156)
# T1 construct: prepared from porcine stomach; from tissue; host or cells: porcine stomach
# Test: H+ +K+ ATPase inhibition (inorganic phosphoric acid release)
# Assay type: biochemical
# Settings: enzyme prepared from porcine stomach; 30 min with compound at room temperature, pH 6.1; then 30 min at 37° C., pH 7.4, 20 mM KCl
# Procedure: H^+ +K^+ ATPase (adenosine triphosphatase) (amount of protein: 10 μg) prepared from porcine stomach was added to a Pipes-TRIS [i.e. 2-amino-2-(hydroxymethyl)-1,3-propanediol] buffer solution (pH 6.1) containing 2 mM of piperazine N,N'-bis(2-ethanesulfonic acid), and the mixture was let stand at room temperature. A test compound was dissolved in dimethyl formamide, and the mixture was added to said H^+ +K^+ ATPase buffer solution so that the final concentration should be 1% and let stand for reaction for 30 minutes at room temperature. Then a 75 mM Pipes-TRIS buffer (1 ml, pH 7.4) (containing 4 mM MgCl2, 4 mM Na2 ATP, and 20 mM KCl) and a 75 mM Pipes-TRIS buffer (1 ml, pH 7.4) (containing 4 mM MgCl2, and 4 mM Na2 ATP) were added to the solution individually to make two kinds of samples and these samples were presented for reaction for 30 minutes at 37° C. 40% Trichloroacetic acid (0.3 ml) was added to each sample to stop the reaction. The solution were subjected to centrifugal separation (3000 rpm) for 10 minutes, and the supernatant was taken off, then the formed inorganic phosphoric acid was measured by Fiske and Subbarow's method [J. Biol. Chem. vol. 66, 375 (1925)]. The value of deducting the amount of inorganic phosphoric acid taken from the Pipes-Tris buffer not containing 20 mM KCl from that taken from the Pipes-Tris buffer containing 20 mM KCl was calculated in terms of unit protein and unit hour to be defined as an activity index of enzyme. Inhibition level (%) in doses of administration was estimated by control values and activity indices of enzyme, and from the obtained inhibition level (%), IC50 (dose of administration of compounds to inhibit in 50%) was obtained.
# T1 sequence (P19156 2-1034 limits assumed): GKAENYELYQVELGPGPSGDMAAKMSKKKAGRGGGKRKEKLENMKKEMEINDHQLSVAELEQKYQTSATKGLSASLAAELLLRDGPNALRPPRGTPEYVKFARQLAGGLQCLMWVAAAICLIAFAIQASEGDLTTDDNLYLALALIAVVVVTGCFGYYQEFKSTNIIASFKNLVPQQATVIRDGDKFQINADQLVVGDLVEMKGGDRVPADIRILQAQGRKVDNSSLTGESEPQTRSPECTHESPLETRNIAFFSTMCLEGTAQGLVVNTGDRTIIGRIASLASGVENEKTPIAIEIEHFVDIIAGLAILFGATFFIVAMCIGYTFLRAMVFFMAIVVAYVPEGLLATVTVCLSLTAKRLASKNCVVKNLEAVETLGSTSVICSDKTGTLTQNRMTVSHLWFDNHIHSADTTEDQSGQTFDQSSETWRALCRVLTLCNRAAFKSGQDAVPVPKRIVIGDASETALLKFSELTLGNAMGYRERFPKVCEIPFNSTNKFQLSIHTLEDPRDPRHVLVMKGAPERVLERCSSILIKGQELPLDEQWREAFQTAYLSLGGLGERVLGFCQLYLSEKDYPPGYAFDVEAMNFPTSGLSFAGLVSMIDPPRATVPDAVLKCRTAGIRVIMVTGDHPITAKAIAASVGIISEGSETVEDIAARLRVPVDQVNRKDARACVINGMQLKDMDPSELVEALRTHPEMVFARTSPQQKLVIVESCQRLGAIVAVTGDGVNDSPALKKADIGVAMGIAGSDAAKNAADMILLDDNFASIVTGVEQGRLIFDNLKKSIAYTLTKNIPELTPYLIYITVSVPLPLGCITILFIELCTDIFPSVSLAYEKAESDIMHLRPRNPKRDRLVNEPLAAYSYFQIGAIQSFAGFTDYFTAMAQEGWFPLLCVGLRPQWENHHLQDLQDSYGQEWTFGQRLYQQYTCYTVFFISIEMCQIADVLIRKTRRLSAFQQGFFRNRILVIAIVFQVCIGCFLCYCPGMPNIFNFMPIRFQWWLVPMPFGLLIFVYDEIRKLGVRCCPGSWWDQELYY
# T1 sequence (P18434 whole entry partner): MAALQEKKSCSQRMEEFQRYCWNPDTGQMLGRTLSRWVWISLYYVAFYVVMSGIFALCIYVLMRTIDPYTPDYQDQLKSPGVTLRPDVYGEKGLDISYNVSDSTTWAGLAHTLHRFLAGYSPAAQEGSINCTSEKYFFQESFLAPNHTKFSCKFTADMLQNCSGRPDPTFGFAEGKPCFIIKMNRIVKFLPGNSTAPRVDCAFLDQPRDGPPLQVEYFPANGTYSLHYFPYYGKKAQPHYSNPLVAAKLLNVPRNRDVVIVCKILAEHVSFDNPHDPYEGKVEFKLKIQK
row,IC50,Structure (SMILES)
1,2800 nM,"CCN1CCC(N(C=O)C2CC2)c2cccc(C[S+]([O-])c3nc4cc(F)c(OC)cc4[nH]3)c21 (stereo not shown) [Test compound No. 65, 1-ethyl-8-(5-fluoro-6-methoxy-2-benzimidazolyl)sulfinylmethyl-4-(N-formyl-N-cyclopropyl)amino-1,2,3,4-tetrahydroquinoline]"
2,920 nM,"CCN1CCCc2cc(C)cc(C[S+]([O-])c3nc4ccccc4[nH]3)c21 (stereo not shown) [Test compound No. 32, 1-ethyl-6-methyl-8-(2-benzimidazolyl)sulfinylmethyl-1,2,3,4-tetrahydroquinoline]"
3,370 nM,"CCN1CCCc2cccc(C[S+]([O-])c3nc4ccc(C(F)(F)F)cc4[nH]3)c21 (stereo not shown) [Test compound No. 10, 1-ethyl-8-(5-trifluoromethyl-2-benzimidazolyl)sulfinylmethyl-1,2,3,4-tetrahydroquinoline]"
4,330 nM,"CCCCN1CCCc2cccc(C[S+]([O-])c3nc4ccc(C)cc4[nH]3)c21 (stereo not shown) [Test compound No. 25, 1-n-butyl-8-(5-methyl-2-benzimidazolyl)sulfinylmethyl-1,2,3,4-tetrahydroquinoline]"
5,4000 nM,"C=CCN1CCC(OC)c2cccc(C[S+]([O-])c3nc4ccc(C)cc4[nH]3)c21 (stereo not shown) [Test compound No. 62, 1-allyl-8-(5-methyl-2-benzimidazolyl)sulfinylmethylmethyl-4-methoxy-1,2,3,4-tetrahydroquinoline]"
6,650 nM,"Cc1ccc2nc([S+]([O-])Cc3cccc4c3N(Cc3ccccc3)CCC4)[nH]c2c1 (stereo not shown) [Test compound No. 28, 1-benzyl-8-(5-methyl-2-benzimidazolyl)sulfinylmethyl-1,2,3,4-tetrahydroquinoline]"
7,890 nM,"CCN1CCC(C)c2cccc(C[S+]([O-])c3nc4cc(OC)c(F)cc4[nH]3)c21 (stereo not shown) [Test compound No. 37, 1-ethyl-8-(5-fluoro-6-methoxy-2-benzimidazolyl)sulfinylmethyl-4-methyl-1,2,3,4-tetrahydroquinoline]"
8,250 nM,"CC1CCN(C)c2c(C[S+]([O-])c3nc4ccccc4[nH]3)cccc21 (stereo not shown) [Test compound No. 29, 1,4-dimethyl-8-(2-benzimidazolyl)sulfinylmethyl-1,2,3,4-tetrahydroquinolin]"
9,550 nM,"CC1=C(C)c2cccc(C[S+]([O-])c3nc4ccccc4[nH]3)c2N(C)C1 (stereo not shown) [Test compound No. 42, 1,3,4-trimethyl-8-(2-benzimidazolyl)sulfinylmethyl-1,2-dihydroquinoline]"
10,2200 nM,"CN1CCC(C)(O)c2cccc(C[S+]([O-])c3nc4ccccc4[nH]3)c21 (stereo not shown) [Test compound No. 45, 1,4-dimethyl-8-(2-benzimidazolyl)sulfinylmethyl-4-hydroxy-1,2,3,4-tetrahydroquinoline]"
11,530 nM,"CN1CCCc2cccc(C[S+]([O-])c3nc4ccc(F)cc4[nH]3)c21 (stereo not shown) [Test compound No. 15, 1-methyl-8-(5-fluoro-2-benzimidazolyl)sulfinylmethyl-1,2,3,4-tetrahydroquinoline]"
12,1500 nM,"CCN1CCC(c2ccccc2)c2cccc(C[S+]([O-])c3nc4ccc(C)cc4[nH]3)c21 (stereo not shown) [Test compound No. 47, 1-ethyl-8-(5-methyl-2-benzimidazolyl)sulfinylmethyl-4-phenyl-1,2,3,4-tetrahydroquinoline]"
13,1900 nM,"CCN1CC(C(=O)O)Cc2cccc(C[S+]([O-])c3nc4ccccc4[nH]3)c21 (stereo not shown) [Test compound No. 56, 1-ethyl-8-(2-benzimidazolyl)sulfinylmethyl-3-carboxy-1,2,3,4-tetrahydroquinoline 1/2hydrate]"
14,4500 nM,"CCN1CCC(CO)c2cccc(C[S+]([O-])c3nc4cc(OC)c(F)cc4[nH]3)c21 (stereo not shown) [Test compound No. 63, 1-ethyl-8-(5-fluoro-6-methoxy-2-benzimidazolyl)sulfinylmethyl-4-hydroxymethyl-1,2,3,4-tetrahydroquinoline]"
15,420 nM,"CCN1CCCc2cccc(C[S+]([O-])c3nc4cc(C)cc(C)c4[nH]3)c21 (stereo not shown) [Test compound No. 12, 1-ethyl-8-(4,6-dimethyl-2-benzimidazolyl)sulfinylmethyl-1,2,3,4-tetrahydroquinoline]"
16,180 nM,"CCCCN1CCCc2cccc(C[S+]([O-])c3nc4ccccc4[nH]3)c21 (stereo not shown) [Test compound No. 24, 1-n-butyl-8-(2-benzimidazolyl)sulfinylmethyl-1,2,3,4-tetrahydroquinoline]"
